{
  "source": "ChEMBL document CHEMBL5465560",
  "about": "“Selectivity Literature for EUbOPEN Chemogenomic Library” (2024)",
  "key": {"[1]": {"biological_target": "Vascular endothelial growth factor receptor 1 (Homo sapiens) (UniProt P17948)", "sequence (P17948 whole entry)": "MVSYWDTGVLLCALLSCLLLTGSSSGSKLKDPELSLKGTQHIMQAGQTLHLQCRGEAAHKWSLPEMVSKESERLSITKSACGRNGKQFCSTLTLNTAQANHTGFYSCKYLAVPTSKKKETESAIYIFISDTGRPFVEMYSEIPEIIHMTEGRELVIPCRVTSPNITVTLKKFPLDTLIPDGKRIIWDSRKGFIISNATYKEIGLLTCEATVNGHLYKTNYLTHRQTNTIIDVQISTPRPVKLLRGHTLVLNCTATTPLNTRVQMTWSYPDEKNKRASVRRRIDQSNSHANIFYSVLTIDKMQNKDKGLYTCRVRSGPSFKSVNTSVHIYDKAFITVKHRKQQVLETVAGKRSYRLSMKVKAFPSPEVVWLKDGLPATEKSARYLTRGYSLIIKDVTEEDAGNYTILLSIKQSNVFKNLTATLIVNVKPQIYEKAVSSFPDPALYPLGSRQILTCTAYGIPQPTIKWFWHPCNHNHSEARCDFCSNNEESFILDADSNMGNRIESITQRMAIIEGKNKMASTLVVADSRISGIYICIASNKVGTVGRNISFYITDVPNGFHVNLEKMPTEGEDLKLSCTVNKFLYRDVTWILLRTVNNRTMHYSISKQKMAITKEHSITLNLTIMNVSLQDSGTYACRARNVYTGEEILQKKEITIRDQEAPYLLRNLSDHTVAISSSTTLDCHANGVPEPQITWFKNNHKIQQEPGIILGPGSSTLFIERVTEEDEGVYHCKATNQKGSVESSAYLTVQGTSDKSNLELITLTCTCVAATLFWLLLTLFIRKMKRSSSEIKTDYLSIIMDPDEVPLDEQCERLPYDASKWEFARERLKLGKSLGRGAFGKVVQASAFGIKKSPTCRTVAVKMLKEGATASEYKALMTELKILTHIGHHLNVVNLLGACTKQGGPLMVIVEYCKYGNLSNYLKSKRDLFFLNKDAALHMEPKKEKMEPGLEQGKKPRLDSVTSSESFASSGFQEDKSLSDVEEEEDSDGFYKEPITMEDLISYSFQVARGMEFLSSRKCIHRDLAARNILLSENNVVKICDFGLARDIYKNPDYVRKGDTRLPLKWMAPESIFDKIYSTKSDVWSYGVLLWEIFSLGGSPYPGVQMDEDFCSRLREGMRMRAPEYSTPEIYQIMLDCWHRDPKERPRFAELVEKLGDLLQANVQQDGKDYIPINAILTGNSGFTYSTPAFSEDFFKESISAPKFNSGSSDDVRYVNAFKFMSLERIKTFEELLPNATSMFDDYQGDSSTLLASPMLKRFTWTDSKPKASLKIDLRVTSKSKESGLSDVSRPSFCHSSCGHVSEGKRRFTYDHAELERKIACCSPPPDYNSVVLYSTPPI", "assay": "Selectivity interaction (KinomeScan (DiscoverX)) EUB0001049a FLT1", "conditions": "at 1 µM"}, "[2]": {"biological_target": "Serine/threonine-protein kinase 38-like (Homo sapiens) (UniProt Q9Y2H1)", "assay": "Selectivity interaction (KinomeScan (DiscoverX)) EUB0000229b STK38L", "conditions": "at 10 µM"}, "[3]": {"biological_target": "Fibroblast growth factor receptor 2 (Homo sapiens) (UniProt P21802)", "assay": "Selectivity interaction (KinomeScan (DiscoverX)) EUB0000595a FGFR2", "conditions": "at 10 µM"}, "[4]": {"biological_target": "Leukocyte tyrosine kinase receptor (Homo sapiens, UniProt P29376)", "assay": "Selectivity interaction (KinomeScan (DiscoverX)) EUB0000595a LTK", "conditions": "at 10 µM"}, "[5]": {"biological_target": "T1, Mitogen-activated protein kinase kinase kinase 6 (Homo sapiens) (UniProt O95382)", "T1 sequence (whole entry)": "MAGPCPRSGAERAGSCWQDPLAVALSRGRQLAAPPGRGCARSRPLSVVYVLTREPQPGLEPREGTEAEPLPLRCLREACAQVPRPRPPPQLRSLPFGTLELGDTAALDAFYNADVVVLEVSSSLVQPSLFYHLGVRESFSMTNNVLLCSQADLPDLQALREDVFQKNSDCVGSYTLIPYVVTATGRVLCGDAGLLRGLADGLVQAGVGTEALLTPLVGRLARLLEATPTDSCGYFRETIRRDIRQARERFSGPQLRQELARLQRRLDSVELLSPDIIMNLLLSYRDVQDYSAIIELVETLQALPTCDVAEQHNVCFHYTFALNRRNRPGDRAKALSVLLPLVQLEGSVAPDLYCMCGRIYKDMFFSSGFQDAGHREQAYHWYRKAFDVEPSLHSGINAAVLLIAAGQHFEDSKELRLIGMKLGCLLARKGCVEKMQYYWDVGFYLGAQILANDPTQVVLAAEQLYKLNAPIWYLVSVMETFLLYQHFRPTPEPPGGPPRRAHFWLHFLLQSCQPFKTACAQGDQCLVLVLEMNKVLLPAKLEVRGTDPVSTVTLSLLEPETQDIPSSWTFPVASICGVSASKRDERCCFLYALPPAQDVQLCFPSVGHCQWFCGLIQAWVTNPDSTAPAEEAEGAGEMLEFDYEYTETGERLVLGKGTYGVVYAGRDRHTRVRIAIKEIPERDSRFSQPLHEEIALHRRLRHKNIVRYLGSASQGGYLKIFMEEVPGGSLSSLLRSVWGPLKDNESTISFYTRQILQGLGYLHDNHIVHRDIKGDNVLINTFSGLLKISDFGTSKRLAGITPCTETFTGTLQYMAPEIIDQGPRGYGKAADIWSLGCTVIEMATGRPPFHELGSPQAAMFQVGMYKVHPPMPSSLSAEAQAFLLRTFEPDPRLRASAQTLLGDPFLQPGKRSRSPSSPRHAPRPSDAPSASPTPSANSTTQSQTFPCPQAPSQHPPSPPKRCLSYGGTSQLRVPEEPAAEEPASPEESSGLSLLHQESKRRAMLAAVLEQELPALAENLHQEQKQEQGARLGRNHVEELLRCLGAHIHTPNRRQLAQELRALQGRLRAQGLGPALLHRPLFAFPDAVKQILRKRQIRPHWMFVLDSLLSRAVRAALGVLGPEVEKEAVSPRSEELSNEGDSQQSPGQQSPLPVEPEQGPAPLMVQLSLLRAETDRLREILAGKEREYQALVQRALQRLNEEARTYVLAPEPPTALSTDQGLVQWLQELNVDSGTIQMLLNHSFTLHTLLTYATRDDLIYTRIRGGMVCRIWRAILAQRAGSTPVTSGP", "assay": "Selectivity interaction (KinomeScan (DiscoverX)) EUB0000045b MAP3K6"}, "[6]": {"biological_target": "Serine/threonine-protein kinase 26 (Homo sapiens, UniProt Q9P289)", "conditions": "PBMC, at 1 µM"}, "[7]": {"biological_target": "Tyrosine-protein kinase Fer (Homo sapiens) (UniProt P16591)", "sequence (P16591 whole entry, looked up)": "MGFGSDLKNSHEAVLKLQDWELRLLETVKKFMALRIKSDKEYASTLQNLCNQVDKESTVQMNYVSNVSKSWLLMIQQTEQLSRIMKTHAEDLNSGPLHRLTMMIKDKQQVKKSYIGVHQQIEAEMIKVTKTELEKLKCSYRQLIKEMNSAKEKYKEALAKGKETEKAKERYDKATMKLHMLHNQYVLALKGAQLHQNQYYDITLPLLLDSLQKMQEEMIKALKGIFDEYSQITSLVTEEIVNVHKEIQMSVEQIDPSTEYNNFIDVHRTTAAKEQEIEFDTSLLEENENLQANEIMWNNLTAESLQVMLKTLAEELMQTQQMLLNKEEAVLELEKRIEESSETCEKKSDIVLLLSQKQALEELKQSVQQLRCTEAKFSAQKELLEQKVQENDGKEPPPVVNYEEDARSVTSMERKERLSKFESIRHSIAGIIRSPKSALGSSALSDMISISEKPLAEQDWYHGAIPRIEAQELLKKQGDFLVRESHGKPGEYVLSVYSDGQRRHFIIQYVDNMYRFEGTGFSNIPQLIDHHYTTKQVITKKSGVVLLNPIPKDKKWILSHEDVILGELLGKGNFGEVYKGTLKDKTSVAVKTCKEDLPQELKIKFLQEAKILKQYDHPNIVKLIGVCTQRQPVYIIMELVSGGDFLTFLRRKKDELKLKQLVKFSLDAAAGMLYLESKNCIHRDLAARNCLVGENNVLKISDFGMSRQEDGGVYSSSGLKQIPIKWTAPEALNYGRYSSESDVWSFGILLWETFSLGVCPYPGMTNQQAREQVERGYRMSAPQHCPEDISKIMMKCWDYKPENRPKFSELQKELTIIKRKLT", "assay": "Selectivity interaction (KinomeScan (DiscoverX)) EUB0001619a FER", "conditions": "at 1 µM"}, "[8]": {"biological_target": "DNA-dependent protein kinase catalytic subunit (Homo sapiens) (UniProt P78527)", "assay": "Selectivity interaction (ActivX KiNativ screen (ex vivo kinase selectivity in human PBMCs)) EUB0001619a PRKDC", "type": "cell-based", "conditions": "PBMC, at 1 µM"}, "[9]": {"biological_target": "Ribosomal protein S6 kinase alpha-5 (Homo sapiens) (UniProt O75582)", "sequence (O75582 whole entry, looked up)": "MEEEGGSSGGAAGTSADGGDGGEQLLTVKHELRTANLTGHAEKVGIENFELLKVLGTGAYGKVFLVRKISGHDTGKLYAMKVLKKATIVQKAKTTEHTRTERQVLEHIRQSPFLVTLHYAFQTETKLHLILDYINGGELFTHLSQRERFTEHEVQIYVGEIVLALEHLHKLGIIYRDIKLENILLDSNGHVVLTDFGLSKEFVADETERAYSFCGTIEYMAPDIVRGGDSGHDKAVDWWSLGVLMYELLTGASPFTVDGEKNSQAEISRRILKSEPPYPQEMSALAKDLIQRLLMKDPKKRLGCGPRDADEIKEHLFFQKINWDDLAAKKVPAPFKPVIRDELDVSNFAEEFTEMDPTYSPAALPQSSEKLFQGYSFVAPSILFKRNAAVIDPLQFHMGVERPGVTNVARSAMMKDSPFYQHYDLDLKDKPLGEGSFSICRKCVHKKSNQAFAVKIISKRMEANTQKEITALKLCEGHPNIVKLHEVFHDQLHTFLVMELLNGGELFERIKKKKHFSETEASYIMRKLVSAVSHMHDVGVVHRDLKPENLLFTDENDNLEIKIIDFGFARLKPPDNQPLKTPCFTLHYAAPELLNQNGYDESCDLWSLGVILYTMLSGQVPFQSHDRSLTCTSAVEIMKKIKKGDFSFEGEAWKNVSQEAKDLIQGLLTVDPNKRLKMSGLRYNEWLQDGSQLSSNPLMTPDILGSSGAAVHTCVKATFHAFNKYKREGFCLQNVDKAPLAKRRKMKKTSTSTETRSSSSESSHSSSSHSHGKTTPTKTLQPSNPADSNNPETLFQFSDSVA", "assay": "Selectivity interaction (KinomeScan (DiscoverX)) EUB0000655a RPS6KA5", "conditions": "at 10 µM"}, "[10]": {"biological_target": "T2, SNF-related serine/threonine-protein kinase (Homo sapiens) (UniProt Q9NRH2)", "T2 sequence (whole entry)": "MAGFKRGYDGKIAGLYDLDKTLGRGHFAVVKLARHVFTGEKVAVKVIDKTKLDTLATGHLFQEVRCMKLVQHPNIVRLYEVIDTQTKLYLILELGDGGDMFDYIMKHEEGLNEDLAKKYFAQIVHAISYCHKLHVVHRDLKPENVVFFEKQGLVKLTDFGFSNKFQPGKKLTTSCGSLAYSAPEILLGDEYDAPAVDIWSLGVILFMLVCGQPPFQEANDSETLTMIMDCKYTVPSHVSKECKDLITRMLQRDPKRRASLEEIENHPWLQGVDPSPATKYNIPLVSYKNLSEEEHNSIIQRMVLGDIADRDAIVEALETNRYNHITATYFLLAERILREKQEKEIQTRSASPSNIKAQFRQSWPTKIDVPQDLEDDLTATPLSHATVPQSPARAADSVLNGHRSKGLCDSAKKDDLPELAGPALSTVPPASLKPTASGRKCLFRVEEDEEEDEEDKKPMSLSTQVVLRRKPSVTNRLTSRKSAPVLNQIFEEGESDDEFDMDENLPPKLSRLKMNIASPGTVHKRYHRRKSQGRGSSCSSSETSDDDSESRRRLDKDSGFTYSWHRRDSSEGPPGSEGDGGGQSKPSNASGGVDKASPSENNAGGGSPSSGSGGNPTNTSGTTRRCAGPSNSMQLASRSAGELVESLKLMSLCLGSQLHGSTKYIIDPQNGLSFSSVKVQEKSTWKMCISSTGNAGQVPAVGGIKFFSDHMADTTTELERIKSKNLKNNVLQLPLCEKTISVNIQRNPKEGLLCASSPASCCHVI", "assay": "Selectivity interaction (KinomeScan (DiscoverX)) EUB0000655a SNRK", "conditions": "at 10 µM"}, "[11]": {"biological_target": "RAC-alpha serine/threonine-protein kinase (Homo sapiens, UniProt P31749)", "assay": "Selectivity interaction (Kinase panel (Z-LYTE Assay)) EUB0001632a AKT1", "conditions": "at 10 µM"}, "[12]": {"test_system": "RAF proto-oncogene serine/threonine-protein kinase (Homo sapiens), P04049 [Y340D,Y341D]", "sequence (P04049 whole entry Y340D/Y341D)": "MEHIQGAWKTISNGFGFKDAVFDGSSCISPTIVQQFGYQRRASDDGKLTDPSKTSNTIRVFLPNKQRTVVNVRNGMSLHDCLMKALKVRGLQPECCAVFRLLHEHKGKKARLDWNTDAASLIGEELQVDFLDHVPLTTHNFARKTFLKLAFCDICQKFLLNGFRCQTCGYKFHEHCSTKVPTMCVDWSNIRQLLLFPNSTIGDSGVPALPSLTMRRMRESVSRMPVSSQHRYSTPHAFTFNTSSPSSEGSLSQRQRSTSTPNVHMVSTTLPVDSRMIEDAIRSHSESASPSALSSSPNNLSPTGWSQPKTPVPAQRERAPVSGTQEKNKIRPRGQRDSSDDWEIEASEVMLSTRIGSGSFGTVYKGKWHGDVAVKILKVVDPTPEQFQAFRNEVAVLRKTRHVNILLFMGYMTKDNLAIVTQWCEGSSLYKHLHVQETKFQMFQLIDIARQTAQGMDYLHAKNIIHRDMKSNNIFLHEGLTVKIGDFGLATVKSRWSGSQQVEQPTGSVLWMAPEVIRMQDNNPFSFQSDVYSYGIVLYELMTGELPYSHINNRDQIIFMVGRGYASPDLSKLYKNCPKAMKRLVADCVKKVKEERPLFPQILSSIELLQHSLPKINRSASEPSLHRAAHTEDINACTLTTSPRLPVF", "assay": "Selectivity interaction (ProQinase) EUB0000171b RAF1"}, "[13]": {"biological_target": "Serine/threonine-protein kinase PAK 6 (Homo sapiens) (UniProt Q9NQU5)", "sequence (Q9NQU5 whole entry, looked up)": "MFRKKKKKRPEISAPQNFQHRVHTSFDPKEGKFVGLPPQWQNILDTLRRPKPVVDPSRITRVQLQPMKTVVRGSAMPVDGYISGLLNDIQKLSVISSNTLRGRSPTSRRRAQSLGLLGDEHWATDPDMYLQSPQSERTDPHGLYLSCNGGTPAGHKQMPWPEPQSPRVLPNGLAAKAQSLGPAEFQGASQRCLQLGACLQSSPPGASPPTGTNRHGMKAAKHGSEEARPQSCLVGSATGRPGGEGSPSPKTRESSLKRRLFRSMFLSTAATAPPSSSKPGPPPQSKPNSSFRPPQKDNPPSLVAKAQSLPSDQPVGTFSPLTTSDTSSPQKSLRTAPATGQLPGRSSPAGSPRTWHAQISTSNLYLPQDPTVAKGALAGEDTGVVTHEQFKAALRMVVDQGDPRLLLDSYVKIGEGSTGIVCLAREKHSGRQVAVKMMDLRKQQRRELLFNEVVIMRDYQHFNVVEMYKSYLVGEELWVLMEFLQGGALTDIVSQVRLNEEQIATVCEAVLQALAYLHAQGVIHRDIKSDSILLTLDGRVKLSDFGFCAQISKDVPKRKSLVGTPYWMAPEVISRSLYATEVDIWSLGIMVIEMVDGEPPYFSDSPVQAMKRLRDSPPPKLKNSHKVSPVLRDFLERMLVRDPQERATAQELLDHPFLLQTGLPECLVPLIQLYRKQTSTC", "assay": "Selectivity interaction (ProQinase) EUB0000171b PAK6", "conditions": "at 1 µM"}, "[14]": {"biological_target": "Serine/threonine-protein kinase MARK2 (Homo sapiens) (UniProt Q7KZI7)", "sequence (Q7KZI7 whole entry)": "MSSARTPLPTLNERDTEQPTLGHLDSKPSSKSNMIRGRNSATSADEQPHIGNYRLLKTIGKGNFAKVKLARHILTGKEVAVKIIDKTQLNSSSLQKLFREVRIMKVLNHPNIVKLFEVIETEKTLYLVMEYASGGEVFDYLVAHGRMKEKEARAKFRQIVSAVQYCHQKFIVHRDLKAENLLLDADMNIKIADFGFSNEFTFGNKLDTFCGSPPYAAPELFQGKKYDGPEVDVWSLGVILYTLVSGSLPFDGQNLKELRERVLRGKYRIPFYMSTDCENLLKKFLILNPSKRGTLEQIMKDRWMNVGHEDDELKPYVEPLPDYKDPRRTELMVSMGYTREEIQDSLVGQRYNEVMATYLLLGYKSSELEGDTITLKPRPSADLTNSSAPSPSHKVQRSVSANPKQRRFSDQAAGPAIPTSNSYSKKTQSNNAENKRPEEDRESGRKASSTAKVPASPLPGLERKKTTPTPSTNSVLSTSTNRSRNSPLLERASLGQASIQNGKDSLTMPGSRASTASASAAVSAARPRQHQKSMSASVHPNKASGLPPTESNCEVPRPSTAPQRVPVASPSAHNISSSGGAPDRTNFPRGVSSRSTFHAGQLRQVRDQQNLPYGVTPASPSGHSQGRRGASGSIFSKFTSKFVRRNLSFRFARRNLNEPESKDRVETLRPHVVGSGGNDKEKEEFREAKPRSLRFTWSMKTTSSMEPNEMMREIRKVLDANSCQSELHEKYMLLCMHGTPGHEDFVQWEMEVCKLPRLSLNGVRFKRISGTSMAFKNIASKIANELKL", "assay": "Selectivity interaction (ProQinase) EUB0000171b MARK2"}},
  "data": [
    {"compound": "COc1cc(Nc2nc(C)cc(-c3cnn4nc(OC)ccc34)n2)cc(C(F)(F)F)c1", "values": [
      {"measurement": "% of control", "setting": "[1]", "value": 82, "unit": "%"}
    ]},
    {"compound": "COc1cc(N(C)c2ccnc3ccc(C(F)(F)F)cc23)cc(OC)c1OC", "values": [
      {"measurement": "% binding", "setting": "[2]", "value": 87, "unit": "%"}
    ]},
    {"compound": "COCC(=O)NC/C=C/c1ccc2ncnc(Nc3ccc(Oc4ccc(C)nc4)c(C)c3)c2c1", "note": "[CP-724714]", "values": [
      {"measurement": "% of control", "setting": "[3]", "value": 100, "unit": "%"},
      {"measurement": "% of control", "setting": "[4]", "value": 88, "unit": "%"}
    ]},
    {"compound": "C=CC(=O)Nc1cc(-n2c(=O)ccc3cnc4ccc(-c5ccc(NS(C)(=O)=O)cc5)cc4c32)ccc1C", "values": [
      {"measurement": "% of control", "setting": "[5]; at 1 µM", "value": 100, "unit": "%"},
      {"measurement": "% of control", "setting": "[5]; at 10 µM", "value": 100, "unit": "%"}
    ]},
    {"compound": "N#Cc1cccc(-c2c[nH]c3ncnc(N4CCOCC4)c23)c1", "values": [
      {"measurement": "% of inhibition", "setting": "[6]", "value": 65, "unit": "%"},
      {"measurement": "% of control", "setting": "[7]", "value": 84, "unit": "%"},
      {"measurement": "% of inhibition", "setting": "[8]", "value": -6, "unit": "%"}
    ]},
    {"compound": "CN(C)CCOc1ccc(-c2nc(-c3ccncc3)c(-c3ccc4c(c3)CC/C4=N\\O)[nH]2)cc1", "values": [
      {"measurement": "% of control", "setting": "[9]", "value": 90, "unit": "%"},
      {"measurement": "% of control", "setting": "[10]", "value": 89, "unit": "%"}
    ]},
    {"compound": "Cn1cc(-n2cnc3c(NCc4nc5cc(Cl)c(Cl)cc5[nH]4)nc(N4CCOCC4)nc32)cn1", "values": [
      {"measurement": "% of control", "setting": "[11]", "value": -0.23, "unit": "%"}
    ]},
    {"compound": "C=CC(=O)Nc1cccc(C(=O)Nc2ccc(Nc3cc(-c4[nH]c(SC)nc4C)ccn3)cc2)c1", "values": [
      {"measurement": "% of control", "setting": "[12]; at 1 µM", "value": 96, "unit": "%"},
      {"measurement": "% of control", "setting": "[12]; at 5 µM", "value": 92, "unit": "%"},
      {"measurement": "% of control", "setting": "[13]", "value": 90, "unit": "%"},
      {"measurement": "% of control", "setting": "[14]; at 1 µM", "value": 93, "unit": "%"},
      {"measurement": "% of control", "setting": "[14]; at 5 µM", "value": 84, "unit": "%"}
    ]}
  ]
}
